Assay results: PubChem BioAssay (NCI)
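A five-concentration, 48-hour dose response in 96-well plates underlies each endpoint, interpolated linearly between surrounding concentrations. GI50 = concentration required for 50% inhibition of growth. The concentration for full growth arrest is given as TGI.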

Columns and labels:
Assay in all cases: NCI tumour cell line growth inhibition, 48 h
IGROV1 ovarian = system: IGROV1 ovarian
MDA-MB-231 breast = system: MDA-MB-231 breast
MOLT-4 leukemia = system: MOLT-4 leukemia
NCI-H522 lung = system: NCI-H522 lung
NCI/ADR-RES ovarian = system: NCI/ADR-RES ovarian
OVCAR-8 ovarian = system: OVCAR-8 ovarian
PC-3 prostate = system: PC-3 prostate
SF-539 CNS = system: SF-539 CNS
T-47D breast = system: T-47D breast
LOX IMVI melanoma = system: LOX IMVI melanoma

Compound	TGI (IGROV1 ovarian)	TGI (MDA-MB-231 breast)	TGI (MOLT-4 leukemia)	TGI (NCI-H522 lung)	TGI (NCI/ADR-RES ovarian)	TGI (OVCAR-8 ovarian)	TGI (PC-3 prostate)	TGI (SF-539 CNS)	TGI (T-47D breast)	TGI (LOX IMVI melanoma)	GI50 (MDA-MB-231 breast)	GI50 (MOLT-4 leukemia)	GI50 (OVCAR-8 ovarian)	GI50 (PC-3 prostate)	GI50 (SF-539 CNS)	GI50 (NCI/ADR-RES ovarian)
COC(=O)C(C)Sc1nc2cc(Cl)ccc2s1 (configuration not stated)	> 100 µM	> 100 µM	> 100 µM	> 100 µM	> 100 µM	> 100 µM	> 100 µM	> 100 µM	> 100 µM							
CCOC(=O)C(Cc1ccccc1)(Cc1ccc(O)cn1)NC(=O)c1ccccc1 (configuration not stated)	96.7 µM	99.6 µM	> 100 µM	53.8 µM	> 100 µM	> 100 µM	75.1 µM	60.6 µM		45.2 µM						
COC(=O)C1(C(=O)OC)N=C(C)OC1C(C)C (configuration not stated)			> 100 µM		> 100 µM	> 100 µM	> 100 µM		> 100 µM	> 100 µM						
COC(=O)[C@@H]1N2C(=S)N(c3ccccc3)C(=O)[C@H]2SC1(C)C	> 100 µM	> 100 µM	> 100 µM	> 100 µM	> 100 µM	> 100 µM	> 100 µM	> 100 µM	> 100 µM							
CCCCN(c1ccccc1)c1ncnc2c1cnn2C	> 100 µM	> 100 µM	40.8 µM	53.6 µM	72.7 µM	> 100 µM	> 100 µM		99.1 µM	> 100 µM						
O=[As](O)(O)c1cc(N=Nc2ccc(-c3ccc(N=Nc4cc([As](=O)(O)O)c(O)cc4O)cc3)cc2)c(O)cc1O	> 100 µM		> 100 µM	> 100 µM		> 100 µM		> 100 µM		> 100 µM						
OCCN=C1Nc2ccc(Cl)cc2C(=S)N2CSC[C@@H]12		> 100 µM	> 100 µM	> 100 µM	> 100 µM	> 100 µM	> 100 µM	> 100 µM	> 100 µM							
CCOC(=O)c1cn(-c2ccc(Cl)cc2)c(=O)n2c1nc1ccccc12	> 100 µM	> 100 µM	> 100 µM		> 100 µM	> 100 µM	> 100 µM	> 100 µM	> 100 µM	> 100 µM						
O=C(N=Nc1ccccc1Br)NNc1ccccc1Br	> 100 µM	> 100 µM	> 100 µM	> 100 µM		> 100 µM	> 100 µM		> 100 µM	> 100 µM						
COc1ccc2c(c1)CCc1c-2n(CCN(C)C)c2ccc(OC)cc12	79.5 µM	> 100 µM	59.1 µM	75.9 µM	46.1 µM	51 µM	46 µM		85.4 µM	> 100 µM						
COc1ccc(CNc2nc(NCc3ccc(OC)cc3)nc(N3CCOCC3)n2)cc1	> 100 µM	> 100 µM	10.9 µM	> 100 µM	13 µM	> 100 µM	> 100 µM	19.2 µM	> 100 µM							
NC(=O)CC(Nc1ncc2c(n1)-c1ccccc1OC2)C(=O)O (configuration not stated)	> 100 µM	> 100 µM	> 100 µM	> 100 µM	> 100 µM	> 100 µM	> 100 µM	> 100 µM		> 100 µM						
CC[N+](CC)=c1ccc2nc3c(cc(N)c4ccccc43)oc-2c1		1.73 µM	0.334 µM			3.43 µM	6.94 µM	0.32 µM			0.363 µM	0.122 µM	1.07 µM	0.567 µM	0.174 µM	
COc1cc2ccnc3c2c(c1O)N(C)C=C3	26.1 µM	> 71.1 µM	> 100 µM		54.5 µM	> 46.8 µM	29.5 µM		> 24.7 µM	> 50.6 µM						
O=C(c1ccco1)N(C(=S)OCc1ccccn1)c1ccccc1	> 100 µM	> 100 µM	> 100 µM		> 100 µM	> 100 µM	> 100 µM	> 100 µM	> 100 µM	> 100 µM						
C=C1C[C@]23C[C@@]1(O)CC[C@H]2[C@@]12C=C[C@H](O)[C@@](C)(C(=O)O1)[C@H]2[C@@H]3C(=O)O	> 100 µM		> 100 µM	> 100 µM				> 100 µM		> 100 µM						
CSc1nncc(-c2cc3c(c(SC)n2)CCC3)n1	10.1 µM	> 100 µM		> 100 µM	> 100 µM	57.1 µM	> 100 µM									
COS(=O)c1cc(Cl)cc(Cl)c1O (configuration not stated)			> 100 µM	36.3 µM				> 100 µM		> 100 µM						
CCOC(=O)C(O)(NC(C)=O)C(F)(F)F (configuration not stated)	> 100 µM		> 100 µM	> 100 µM	> 100 µM	> 100 µM	> 100 µM	> 100 µM	> 100 µM	> 100 µM						
OC1OC(c2ccco2)C(F)(F)C(F)(F)C1(F)F (configuration not stated)	> 100 µM	> 100 µM			> 100 µM	> 100 µM	> 100 µM	> 100 µM	> 100 µM	> 100 µM						
O=C1OS2(OCc3cccc4cccc2c34)c2ccccc21 (configuration not stated)	> 100 µM	> 100 µM	> 100 µM	> 100 µM	> 100 µM		> 100 µM	> 100 µM	> 100 µM	> 100 µM						
CSC1SCC2C(=O)N(C)C3(CC3C)C(=O)OCC(NC(=O)c3nc4ccccc4cc3O)C(=O)NC(C)C(=O)N(C)C1C(=O)N(C)C1(CC1C)C(=O)OCC(NC(=O)c1nc3ccccc3cc1O)C(=O)NC(C)C(=O)N2C (configuration not stated)	0.281 µM				72.7 µM			< 0.0001 µM	> 100 µM	< 0.0001 µM						0.124 µM
O=C(NCCO)c1ccc(Cl)cc1	> 100 µM	> 100 µM	> 100 µM	> 100 µM	> 100 µM	> 100 µM	> 100 µM		> 100 µM	> 100 µM						
COc1ccc(-c2c(C#N)c(-c3ccccc3)n(NS(=O)(=O)c3ccccc3)c(=O)c2C#N)cc1	> 100 µM	> 100 µM	91.2 µM	73.7 µM	> 100 µM	> 100 µM	> 100 µM	> 100 µM		> 100 µM						
